Consider one compound from patent US9371365B2, “Modified compstatin with peptide backbone and C-terminal modifications” (The Trustees of the University of Pennsylvania, priority 2009, dated 2016).

Structures are written as SMILES. Where two headings read alike, the source gives them in different places.

Assay [1] relates to classical pathway of complement. Nature of the assay: Inhibition of classical pathway complement activation, ELISA in human serum. In kind it is biochemical. As for the experimental part:
The ability of the compstatin analogs to inhibit the activation of the classical pathway of complement was assessed by ELISA (Mallik et al., 2005, J Med Chem 48:274-86). In brief, complement was activated in human serum using an antigen-antibody complex in the presence or absence of compstatin analogs, and the deposition of C3 fragments on the plate surface was detected using an HRP-conjugated polyclonal anti-C3 antibody. […] The percent inhibition was plotted against the peptide concentration, and the resulting data set was fitted to the logistic dose-response function using Origin 7.0 software. IC50 values were obtained from the fitted parameters that produced the lowest χ^2 value. Each analog was assayed at least three to seven times.
The ability of the compstatin analogs to inhibit the activation of the classical pathway of complement was assessed by ELISA as described in Example 1. Each conjugate was assayed at least three times.
A general note: In an ELISA, binding on a coated surface is turned into a signal by an enzyme label.

For assay [2], the target named is T1, C3 (Homo sapiens, UniProt P01024).
T1 construct: C3 was purified from fresh human plasma; from tissue; host or cells: fresh human plasma (blood bank of the Hospital of the University of Pennsylvania)
Briefly: ITC analysis of binding to C3. As for the experimental part:
C3 was purified from fresh human plasma obtained from the blood bank of the Hospital of the University of Pennsylvania. In brief, the plasma was fractionated with 15% (w/v) PEG 3350, and the pellet was resuspended in 20 mM phosphate buffer, pH 7.8, and then subjected to anion-exchange chromatography on a DEAE-HR 40 column (50×5 cm; Millipore Inc., Billerica, Mass.) with the same buffer. Proteins were eluted with 6 L of a linear gradient (15-70%) of 20 mM phosphate buffer, pH 7.8, containing 500 mM NaCl. C3 was further purified on a size-exclusion Superdex 200 26/60 column (Amersham Biosciences) and a Mono S column (Amersham Biosciences) to separate C3 from C3(H2O).
All titrations were performed in PBS (10 mM phosphate buffer with 150 mM NaCl, pH 7.4) at 25° C. using multiple peptide injections of 2-7 μL each. The raw isotherms were corrected for the heats of dilution by subtracting the isotherms representing peptide injections into the buffer. The resulting isotherms were fitted to a single site of sites models using Origin 7.0 software, and the model that produced the lowest χ^2 value was deemed to be appropriate for the respective data set. The Gibbs free energy was calculated as ΔG=ΔH−TΔS. Each experiment was repeated at least twice.
Background: ITC needs no label: the signal is the heat of the interaction.

T1 sequence (P01024 23-667 limits assumed): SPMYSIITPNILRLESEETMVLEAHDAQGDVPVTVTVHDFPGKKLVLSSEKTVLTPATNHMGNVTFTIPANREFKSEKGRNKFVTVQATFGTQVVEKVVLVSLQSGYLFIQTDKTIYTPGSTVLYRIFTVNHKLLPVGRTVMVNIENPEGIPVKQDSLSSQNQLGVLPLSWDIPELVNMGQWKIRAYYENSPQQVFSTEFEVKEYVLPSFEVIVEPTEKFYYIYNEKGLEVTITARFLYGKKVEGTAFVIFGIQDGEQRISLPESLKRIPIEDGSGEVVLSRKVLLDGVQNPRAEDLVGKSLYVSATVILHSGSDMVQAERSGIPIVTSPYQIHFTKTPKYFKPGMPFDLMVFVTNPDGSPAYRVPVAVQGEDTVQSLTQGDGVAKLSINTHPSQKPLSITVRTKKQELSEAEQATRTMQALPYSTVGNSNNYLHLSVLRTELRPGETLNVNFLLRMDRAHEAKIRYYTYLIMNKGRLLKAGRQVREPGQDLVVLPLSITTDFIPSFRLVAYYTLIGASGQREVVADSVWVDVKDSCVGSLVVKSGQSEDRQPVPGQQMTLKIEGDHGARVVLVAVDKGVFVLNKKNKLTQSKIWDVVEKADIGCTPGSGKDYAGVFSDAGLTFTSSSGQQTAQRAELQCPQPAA
T1 sequence (P01024 672-1663 limits assumed): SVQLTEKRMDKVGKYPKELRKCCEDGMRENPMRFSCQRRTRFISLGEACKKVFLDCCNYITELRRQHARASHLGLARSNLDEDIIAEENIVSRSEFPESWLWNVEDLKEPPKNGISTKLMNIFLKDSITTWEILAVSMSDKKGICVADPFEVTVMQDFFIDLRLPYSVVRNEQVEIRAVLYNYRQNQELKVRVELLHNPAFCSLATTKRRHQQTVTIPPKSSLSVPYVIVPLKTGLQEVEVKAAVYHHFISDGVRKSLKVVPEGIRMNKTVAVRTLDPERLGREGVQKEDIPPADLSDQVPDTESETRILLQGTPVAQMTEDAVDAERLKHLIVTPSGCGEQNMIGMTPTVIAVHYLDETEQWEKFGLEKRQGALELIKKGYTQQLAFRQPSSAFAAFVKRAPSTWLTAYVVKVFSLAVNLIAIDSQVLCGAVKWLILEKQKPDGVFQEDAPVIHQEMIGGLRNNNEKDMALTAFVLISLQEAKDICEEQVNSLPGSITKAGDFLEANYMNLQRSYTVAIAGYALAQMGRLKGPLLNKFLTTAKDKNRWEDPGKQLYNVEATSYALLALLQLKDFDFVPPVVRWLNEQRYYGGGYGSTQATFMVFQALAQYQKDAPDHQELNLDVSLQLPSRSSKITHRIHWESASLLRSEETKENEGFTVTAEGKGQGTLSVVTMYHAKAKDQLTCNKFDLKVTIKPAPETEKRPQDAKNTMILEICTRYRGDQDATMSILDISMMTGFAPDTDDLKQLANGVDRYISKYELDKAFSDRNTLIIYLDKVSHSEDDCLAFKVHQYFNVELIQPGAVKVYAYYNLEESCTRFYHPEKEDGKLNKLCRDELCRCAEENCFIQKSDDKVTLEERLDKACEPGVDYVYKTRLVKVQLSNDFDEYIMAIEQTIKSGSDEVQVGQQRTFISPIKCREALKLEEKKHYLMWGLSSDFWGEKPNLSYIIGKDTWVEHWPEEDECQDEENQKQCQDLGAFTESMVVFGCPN

As a reminder, the IC50 is the concentration that inhibits the measured activity by half. With `CC[C@H](C)[C@H](NC(=O)[C@@H]1CSSC[C@H](NC(=O)[C@@H](NC(C)=O)[C@@H](C)CC)C(=O)N[C@@H](C(C)C)C(=O)N[C@@H](Cc2cn(C)c3ccccc23)C(=O)N[C@@H](CCC(N)=O)C(=O)N[C@@H](CC(=O)O)C(=O)N[C@@H](Cc2c[nH]c3ccccc23)C(=O)N(C)CC(=O)N[C@@H](C)C(=O)N[C@@H](Cc2c[nH]cn2)C(=O)N[C@@H](CCCNC(=N)N)C(=O)N1)C(N)=O` [Peptide 17, Ac−Ic[CV(^1−MeW)QDW(^N−MeG)AHRC]I-NH2], the IC50 in assay [1] (Table 1-2, read-out: IC50) turned out to be 92 nM. In assay [1] (classical pathway, human serum, Table 2-1, read-out: IC50 (nM, CP)), the IC50 was 92 nM. Further, the IC50 in assay [1] (exemplary analogs table, read-out: IC50) is 92 nM. This compound showed a rP in assay [1] (relative potency compared to peptide 14) of 2.2. For the same compound, in assay [1] (relative to peptide 17), the “IC50 (fold change)” value came to 1. Moreover, in assay [2] (ITC), the ΔH is -14.1 kcal/mol, the “ΔH (text)” value is -14.1 kcal/mol, the “−TΔS” value worked out at 2.9 kcal/mol and the “−TΔS (text)” value was found to be 2.9 kcal/mol. Further, the ΔG in assay [2] (ITC, ΔG=ΔH−TΔS) was -11.2 kcal/mol. Further, in assay [2] (relative to peptide 14), the “rKD ITC” value was 2.4, the ΔΔG is -0.5 kcal/mol, the ΔΔH was 3.5 kcal/mol and the “−TΔΔS” value was -4.1 kcal/mol.
